Measured values reported in patent publication US20160338966A1, “Multimicroparticulate pharmaceutical forms foe oral administration” (FLAMEL IRELAND LIMITED, priority 2006, published 2016).

Assay: behavior of agents D in water and in ethanol/water solution 40/60 v/v
Assay type: physicochemical
Text: Different compounds D are introduced into ajar containing either water (on the left in the Figures) or an ethanol/water solution in a ratio of 40/60 v/v (right jar in the Figures).

guar gum
solubility in water and in ethanol/water: soluble in water but not in the water/ethanol mixture

hydroxypropyl methyl cellulose [hypromellose]
solubilization rate in water versus water/ethanol mixture: higher in water than in the water/ethanol mixture
